In ChEMBL document CHEMBL3399961, “Sulfamic acid promoted one-pot three-component synthesis and cytotoxic evaluation of spirooxindoles” (Bioorg Med Chem Lett, 2015):

Columns and labels:
Format in all cases: functional, cell-based
DU-145 = assay: Cytotoxicity against human DU145 cells after 48 hrs by MTT assay; conditions: DU-145, 48 h
A549 = assay: Cytotoxicity against human A549 cells after 48 hrs by MTT assay; conditions: A549, 48 h
MDA-MB-231 = assay: Cytotoxicity against human MDA-MB-231 cells after 48 hrs by MTT assay; conditions: MDA-MB-231, 48 h

SMILES	IC50 (DU-145) [µM]	IC50 (A549) [µM]	IC50 (MDA-MB-231) [µM]
O=C1N(Cc2ccc3c(c2)OCO3)c2ccccc2C12c1c(-c3ccccc3)n[nH]c1Nc1[nH]c(=O)[nH]c(=O)c12 (stereo not given)	19.6	17.4	20.2
O=C1N(Cc2ccc3c(c2)OCO3)c2ccc(Cl)cc2C12c1c(-c3ccccc3)n[nH]c1Nc1[nH]c(=O)[nH]c(=O)c12 (stereo not given)	24.4	26.3	15.9
O=C1N(Cc2ccc3c(c2)OCO3)c2ccc(Br)cc2C12c1c(-c3ccccc3)n[nH]c1Nc1[nH]c(=O)[nH]c(=O)c12 (stereo not given)	16.5	14.8	13.6
COc1cc(CN2C(=O)C3(c4cc(Cl)ccc42)c2c(-c4ccccc4)n[nH]c2Nc2[nH]c(=O)[nH]c(=O)c23)cc(OC)c1OC (stereo not given)	32.6	31.3	39.8
COc1cc(CN2C(=O)C3(C4=C(COC4=O)Nc4[nH]nc(-c5ccccc5)c43)c3cc(Cl)ccc32)cc(OC)c1OC (stereo not given)	20.5	19.9	19.4
O=C1Nc2ccccc2C12c1c(-c3ccccc3)n[nH]c1Nc1[nH]c(=O)[nH]c(=O)c12 (stereo not given)	18.3	17.7	35.2
O=C1Nc2ccc(F)cc2C12c1c(-c3ccccc3)n[nH]c1Nc1[nH]c(=O)[nH]c(=O)c12 (stereo not given)	42.3	25.2	75.2
O=C1Nc2c(F)cccc2C12c1c(-c3ccccc3)n[nH]c1Nc1[nH]c(=O)[nH]c(=O)c12 (stereo not given)	20.7	18.2	66.9
O=C1Nc2ccc(Cl)cc2C12c1c(-c3ccccc3)n[nH]c1Nc1[nH]c(=O)[nH]c(=O)c12 (stereo not given)	15.8	7.92	68.4
O=C1Nc2ccc(Br)cc2C12c1c(-c3ccccc3)n[nH]c1Nc1[nH]c(=O)[nH]c(=O)c12 (stereo not given)	30.5	21.6	48.2
O=C1Nc2ccc(I)cc2C12c1c(-c3ccccc3)n[nH]c1Nc1[nH]c(=O)[nH]c(=O)c12 (stereo not given)	10.4	12.5	46.1
Cc1ccc2c(c1)C1(C(=O)N2)c2c(-c3ccccc3)n[nH]c2Nc2[nH]c(=O)[nH]c(=O)c21 (stereo not given)	9.63	7.82	63.2
COc1ccc2c(c1)C1(C(=O)N2)c2c(-c3ccccc3)n[nH]c2Nc2[nH]c(=O)[nH]c(=O)c21 (stereo not given)	22.9	23.9	28.5
O=C1Nc2ccc([N+](=O)[O-])cc2C12c1c(-c3ccccc3)n[nH]c1Nc1[nH]c(=O)[nH]c(=O)c12 (stereo not given)	9.63	7.82	63.2
O=C1N(Cc2ccccc2)c2ccccc2C12c1c(-c3ccccc3)n[nH]c1Nc1[nH]c(=O)[nH]c(=O)c12 (stereo not given)	18.2	36.2	13.1
O=C1N(Cc2ccccc2)c2ccc(Cl)cc2C12c1c(-c3ccccc3)n[nH]c1Nc1[nH]c(=O)[nH]c(=O)c12 (stereo not given)	20.4	19.9	12.6
O=C1N(Cc2ccccc2)c2ccc(Br)cc2C12c1c(-c3ccccc3)n[nH]c1Nc1[nH]c(=O)[nH]c(=O)c12 (stereo not given)	23.7	25.4	6.33
COc1ccc2c(c1)C1(C(=O)N2Cc2ccccc2)c2c(-c3ccccc3)n[nH]c2Nc2[nH]c(=O)[nH]c(=O)c21 (stereo not given)	21.6	16.8	14.5

SMILES	IC50 (DU-145) [µM]	IC50 (A549) [µM]	IC50 (MDA-MB-231) [µM]
O=C1OCC2=C1C1(C(=O)Nc3ccccc31)c1c(-c3ccccc3)n[nH]c1N2 (stereo not given)	25.2	13.5	48.9
O=C1OCC2=C1C1(C(=O)Nc3ccc(F)cc31)c1c(-c3ccccc3)n[nH]c1N2 (stereo not given)	28.5	25.2	34.6
O=C1OCC2=C1C1(C(=O)Nc3c(F)cccc31)c1c(-c3ccccc3)n[nH]c1N2 (stereo not given)	37.3	37	52.3
O=C1OCC2=C1C1(C(=O)Nc3ccc(Cl)cc31)c1c(-c3ccccc3)n[nH]c1N2 (stereo not given)	41.2	50.1	55.2
O=C1OCC2=C1C1(C(=O)Nc3ccc(Br)cc31)c1c(-c3ccccc3)n[nH]c1N2 (stereo not given)	20.5	31.6	25.1
O=C1OCC2=C1C1(C(=O)Nc3ccc(I)cc31)c1c(-c3ccccc3)n[nH]c1N2 (stereo not given)	21.6	32.8	19.8
Cc1ccc2c(c1)C1(C(=O)N2)C2=C(COC2=O)Nc2[nH]nc(-c3ccccc3)c21 (stereo not given)	12.9	15.8	62.1
COc1ccc2c(c1)C1(C(=O)N2)C2=C(COC2=O)Nc2[nH]nc(-c3ccccc3)c21 (stereo not given)	43.6	50.1	54.7
O=C1OCC2=C1C1(C(=O)Nc3ccc([N+](=O)[O-])cc31)c1c(-c3ccccc3)n[nH]c1N2 (stereo not given)	38.5	51.3	50.1
O=C1OCC2=C1C1(C(=O)N(Cc3ccccc3)c3ccccc31)c1c(-c3ccccc3)n[nH]c1N2 (stereo not given)	15.9	35.4	31.7
O=C1OCC2=C1C1(C(=O)N(Cc3ccccc3)c3ccc(Cl)cc31)c1c(-c3ccccc3)n[nH]c1N2 (stereo not given)	35.3	50.2	3.9
O=C1OCC2=C1C1(C(=O)N(Cc3ccccc3)c3ccc(Br)cc31)c1c(-c3ccccc3)n[nH]c1N2 (stereo not given)	8.46	15.8	12.5
COc1ccc2c(c1)C1(C(=O)N2Cc2ccccc2)C2=C(COC2=O)Nc2[nH]nc(-c3ccccc3)c21 (stereo not given)	15.2	14.5	5.12
O=C1OCC2=C1C1(C(=O)N(Cc3ccc4c(c3)OCO4)c3ccccc31)c1c(-c3ccccc3)n[nH]c1N2 (stereo not given)	11.7	41.2	10.1
O=C1OCC2=C1C1(C(=O)N(Cc3ccc4c(c3)OCO4)c3ccc(Cl)cc31)c1c(-c3ccccc3)n[nH]c1N2 (stereo not given)	15.2	19.9	0.35
O=C1OCC2=C1C1(C(=O)N(Cc3ccc4c(c3)OCO4)c3ccc(Br)cc31)c1c(-c3ccccc3)n[nH]c1N2 (stereo not given)	13.6	63.4	1.92
O=c1[nH]cc(F)c(=O)[nH]1 [FLUOROURACIL]	6.37	7.51	5.82
